Structures can show the parent of a compound that is named as a salt.
Target: T1, Savinase® 16.0L (Lederbergia lenta, UniProt P29600)
T1 construct: purchased Sigma-Aldrich
T1 sequence (P29600 1-269): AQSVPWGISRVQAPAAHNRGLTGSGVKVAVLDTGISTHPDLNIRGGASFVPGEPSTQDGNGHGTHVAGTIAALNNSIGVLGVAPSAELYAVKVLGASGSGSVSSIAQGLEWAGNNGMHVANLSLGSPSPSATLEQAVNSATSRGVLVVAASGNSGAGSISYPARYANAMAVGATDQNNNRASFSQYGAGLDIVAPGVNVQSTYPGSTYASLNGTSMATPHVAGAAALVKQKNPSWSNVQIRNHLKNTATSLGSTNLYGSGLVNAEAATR
Experiment: Protease storage stability in liquid formulations at 37° C. (Suc-AAPF-pNA assay)
Type: biochemical
Conditions: 0.7 wt% Savinase 16.0 L
Procedure: The storage stability of protease was assessed at 37° C.
Base test formulations were manufactured by making base formulations I to V by mixing the components according to Table 1.
Protease used: Savinase® 16.0L (CAS-No. 9014-01-1, EC-No. 232-752-2) was purchased from Sigma-Aldrich.
The respective component (a) or comparative compound was added, if applicable, to the respective base formulation in amounts as indicated in Table 1.
The amount of protease as provided in Table 1 refers to active protein.
Water was added to accomplish the balance to 100.
Savinase activity at certain points in time as indicated in Table 2 was be determined by employing Succinyl-Ala-Ala-Pro-Phe-p-nitroanilide (Suc-AAPF-pNA, short AAPF) as substrate. pNA is cleaved from the substrate molecule by proteolytic cleavage, resulting in release of yellow color of free pNA which was determined by measuring OD405. Measurements were done at 20° C.
The proteolytic activity values provided in Table 3 were calculated referring to the 100% value determined in the reference formulation at the time 0.
The nomenclature of formulations is as follows: the Roman number before the full stop characterizes the base formulation, the Arabian number the type of compound (A. # compound according to invention (component (a)); (B. #) comparative compound).

## O=C(O)CC(O)(CC(=O)O)C(=O)O [B.2, citric acid trisodium salt, reference compound]
Base formulation I, 2.5 wt% compound, 3 d, trisodium salt
  protease activity in the course of time of storage at 37° C.: 95%
Base formulation I, 2.5 wt% compound, 7 d, trisodium salt
  protease activity in the course of time of storage at 37° C.: 84%
Base formulation I, 2.5 wt% compound, 14 d, trisodium salt
  protease activity in the course of time of storage at 37° C.: 68%
Base formulation I, 2.5 wt% compound, 21 d, trisodium salt
  protease activity in the course of time of storage at 37° C.: 64%
Base formulation I, 2.5 wt% compound, 28 d, trisodium salt
  protease activity in the course of time of storage at 37° C.: 59%
Base formulation I, 2.5 wt% compound, 35 d, trisodium salt
  protease activity in the course of time of storage at 37° C.: 55%
Base formulation II, 2.5 wt% compound, 3 d
  protease activity in the course of time of storage at 37° C.: 95%
Base formulation II, 2.5 wt% compound, 7 d
  protease activity in the course of time of storage at 37° C.: 82%
Base formulation II, 2.5 wt% compound, 14 d
  protease activity in the course of time of storage at 37° C.: 75%
Base formulation II, 2.5 wt% compound, 21 d
  protease activity in the course of time of storage at 37° C.: 66%
Base formulation II, 2.5 wt% compound, 28 d
  protease activity in the course of time of storage at 37° C.: 63%
Base formulation II, 2.5 wt% compound, 35 d
  protease activity in the course of time of storage at 37° C.: 60%
Base formulation III, 2.0 wt% compound, 3 d, trisodium salt
  protease activity in the course of time of storage at 37° C.: 93%
Base formulation III, 2.0 wt% compound, 7 d, trisodium salt
  protease activity in the course of time of storage at 37° C.: 83%
Base formulation III, 2.0 wt% compound, 14 d, trisodium salt
  protease activity in the course of time of storage at 37° C.: 73%
Base formulation III, 2.0 wt% compound, 21 d, trisodium salt
  protease activity in the course of time of storage at 37° C.: 62%
Base formulation III, 2.0 wt% compound, 28 d, trisodium salt
  protease activity in the course of time of storage at 37° C.: 57%
Base formulation III, 2.0 wt% compound, 35 d, trisodium salt
  protease activity in the course of time of storage at 37° C.: 50%
Base formulation IV, 2.0 wt% compound, 3 d
  protease activity in the course of time of storage at 37° C.: 91%
Base formulation IV, 2.0 wt% compound, 7 d
  protease activity in the course of time of storage at 37° C.: 86%
Base formulation IV, 2.0 wt% compound, 14 d
  protease activity in the course of time of storage at 37° C.: 70%
Base formulation IV, 2.0 wt% compound, 21 d
  protease activity in the course of time of storage at 37° C.: 64%
Base formulation IV, 2.0 wt% compound, 28 d
  protease activity in the course of time of storage at 37° C.: 58%
Base formulation IV, 2.0 wt% compound, 35 d
  protease activity in the course of time of storage at 37° C.: 52%

## O=C(O)CC(O)(CC(=O)O)C(=O)O [B.1, citric acid, reference compound]
Base formulation I, 2.5 wt% compound, 3 d
  protease activity in the course of time of storage at 37° C.: 94%
Base formulation I, 2.5 wt% compound, 7 d
  protease activity in the course of time of storage at 37° C.: 86%
Base formulation I, 2.5 wt% compound, 14 d
  protease activity in the course of time of storage at 37° C.: 76%
Base formulation I, 2.5 wt% compound, 21 d
  protease activity in the course of time of storage at 37° C.: 67%
Base formulation I, 2.5 wt% compound, 28 d
  protease activity in the course of time of storage at 37° C.: 62%
Base formulation I, 2.5 wt% compound, 35 d
  protease activity in the course of time of storage at 37° C.: 57%
Base formulation III, 2.0 wt% compound, 3 d
  protease activity in the course of time of storage at 37° C.: 92%
Base formulation III, 2.0 wt% compound, 7 d
  protease activity in the course of time of storage at 37° C.: 84%
Base formulation III, 2.0 wt% compound, 14 d
  protease activity in the course of time of storage at 37° C.: 75%
Base formulation III, 2.0 wt% compound, 21 d
  protease activity in the course of time of storage at 37° C.: 65%
Base formulation III, 2.0 wt% compound, 28 d
  protease activity in the course of time of storage at 37° C.: 60%
Base formulation III, 2.0 wt% compound, 35 d
  protease activity in the course of time of storage at 37° C.: 53%
Base formulation V, 2.0 wt% compound, 3 d
  protease activity in the course of time of storage at 37° C.: 93%
Base formulation V, 2.0 wt% compound, 7 d
  protease activity in the course of time of storage at 37° C.: 86%
Base formulation V, 2.0 wt% compound, 14 d
  protease activity in the course of time of storage at 37° C.: 75%
Base formulation V, 2.0 wt% compound, 21 d
  protease activity in the course of time of storage at 37° C.: 65%
Base formulation V, 2.0 wt% compound, 28 d
  protease activity in the course of time of storage at 37° C.: 57%
Base formulation V, 2.0 wt% compound, 35 d
  protease activity in the course of time of storage at 37° C.: 50%

From patent US20210395650A1, “COMPOUNDS STABILIZING HYDROLASES IN LIQUIDS” (BASF SE, priority 2018, published 2021)
